Experimental data taken from patent US20020137779A1, “Use of L-2-oxothiazolidine-4-carboxylic acid for the treatment of type 2 diabetes” (Advanced Biochemicals Inc., priority 2001, published 2002).

What was measured:
[1] = tested on: pancreatic islets of type 2 diabetes mice; assay: morphological examination of pancreatic islets, hematoxylin-eosine and anti-insulin immunohistochemistry (Example 6); assay type: in vivo, mouse; settings: 80 mg/kg for four weeks, 120 min after glucose 1 g/kg i.p.
Description: Sixth step: Identifying the ability of insulin secretion of the control group and the type 2 diabetes mouse to which 80 mg/kg of L-2-oxothiazolidine-4-carboxylic acid for 4 weeks determined by immunohistochemical staining with anti-insulin antibody.
L-2-oxothiazolidine-4-carboxylic acid or PBS alone was administered to 3 mice in each group, 1 g/kg of glucose was intraperitoneally injected in the fasted state, and they were sacrificed by cervical dislocation after 120 min. of the injection. Immediately, the abdominal region was incised, pancreases were then removed from the mice and fixed more than 12 hours in a cold solution of 4% paraformaldehyde in PBS(pH 7.4, Sigma, USA). Pancreas separated free of intestine and adipose tissue(fatty tissue), rinsed three times with fresh fixing solution, and the fixed tissues were processed routinely for paraffin embedding. The tissue sections were cut off at 5 ^μm interval using microtome(Sandon, Germany) from the paraffin embedding, and adhered to a slide coated with poly-L-lysine(Sigma, USA) for immunohistochemistry.
To remove the paraffin from the slides on which pancreatic tissue was coated, the slides were repeatedly treated with xylene for 5 min., and the tissue sections were rehydrated with a series of 100-70% alcohol and incubated with PBS(pH 7.4) for 5 minutes. […]

pancreatic islet cells = assay: insulin secretion of pancreatic islets isolated from mice, radioimmunoassay; assay type: cell-based, C57BL mouse
Description: First step; After isolating pancreatic islets from a C57BL mouse according to Lacy and Kotianovsky(Diabetes, 16, 35-39, 1967), the islets were incubated for 60 min. at 37°C. with 250 […] of L-2-oxothiazolidine-4-carboxylic acid alone or together with 2.8-25 mM of glucose, and insulin from the supernatant was measured by radioimmunoassay,
The isolation of pancreatic islets from a C57BL mouse(weight; 20 g, Samtako, Daejeon, Korea) was performed according to the method of Lacy and Kotianovsky et al.(Diabetes, 16; 35-39, 1967). The pancreas of ether-anesthetized mouse was distended by infusion with Hank's balanced salt solution(HBSS, GIBCO, USA) containing 1 mg/ml of collagenase (Sigma, USA) via common bile duct and isolated. The isolated pancreas was digested for 20 min at 37 C while stirring homogeneously. After removing acinar cells by washing with HBSS, pancreatic islets of similar size were collected under dissecting microscope. 2.8-25 mM of glucose(Sigma, USA) alone or together with 250 ^μM-[…] of L-2-oxothiazolidine-4-carboxylic acid were administered to the isolated 10 pancreatic islets in 100 ^μl of Krebs Ringer bicarbonate(Sigma, USA) buffer solution containing 10 mM of Hepes, the islets were incubated for 60 min. at 37 °C., and insulin in the supernatant, from which the pancreatic β-islet cells was removed, was measured. […]

mice = mice pre-treated with L-2-oxothiazolidine-4-carboxylic acid, acetaminophen 9.5 mmol/kg oral; cited from earlier work
[2] = tested on: type 2 diabetes mice (C57BL/KsJ-db/db Jcl); assay: serum insulin levels after glucose intake, single oral administration (Example 3); assay type: in vivo, mouse; settings: for concentration of insulin / increase of insulin concentration vs control group: 30 min after glucose intake
Description: Third step; Determining the abilities of lowering blood glucose level and increasing insulin secretion ability following glucose loading, by administering a single dose of 8-80 mg/kg of L-2-oxothiazolidine-4-carboxylic acid to a type 2 diabetes mouse, Fourth step; Examining the effect of long term administration of L-2-oxothiazolidine-4-carboxylic acid on lowering blood glucose levels,
Under the same breeding condition as in EXAMPLE 2, no feed but water was given to 7 week old type 2 diabetes mice (C57BL/KsJ-db/db Jel, Clea, Japan) for 13 hours. 0.2 ml of PBS was orally given to the control group(5 mice) using feeding needle, and 8-80 mg/kg of L-2-oxothiazolidine-4-carboxylic acid dissolved in 0.2 ml of PBS was orally administered to the experimental group(5 mice). After 5 hours of drug administration, 1 g/kg of glucose (Sigma, USA) was intraperitoneally injected and the mice were maintained for 30 to 120 minutes. The blood glucose levels of type 2 diabetes mice at various time points were measured by the glucose oxidase method using a glucose analyzer(One-touch Basic, Lifescan, USA), and serum insulin levels were determined using a radioimmunoassay, as described in EXAMPLE 2.

O=C1NC(C(=O)O)CS1 [OTC, L-2-oxothiazolidine-4-carboxylic acid]
densities of the capsule and the β-cells in the capsule, hematoxylin-eosine staining [1]: high | positive response to anti-insulin antibody of pancreatic β-islet cells [1]: distinctly increased | insulin secretion of pancreatic islet cells (pancreatic islet cells; 500 μM−2 mM OTC in the presence of 17.5 mM glucose, 60 min at 37°C): increased insulin secretion in a dose-dependent manner | glucose dependence of the stimulation of insulin secretion from pancreatic islets (pancreatic islet cells; OTC 500 μM-2 mM): the presence of glucose is required for the stimulation of insulin secretion | mortality rate (mice): less than 10% | concentration of insulin ([2]; 40 mg/kg single oral dose): 1,650±103 pmol/1 | increase of insulin concentration vs control group ([2]; 40 mg/kg single oral dose): 26.5% | concentration of insulin ([2]; 80 mg/kg single oral dose): 1,760±94 pmol/l | increase of insulin concentration vs control group ([2]; 80 mg/kg single oral dose): 35.4% | duration of the improvement of insulin secretion after the intake of glucose ([2]; 40-80 mg/kg single oral dose): about 120 min
